Measurements taken from paper PMC10239048, “Synthesis and antioxidant, antimicrobial, and antiviral activity of some pyrazole-based heterocycles using a 2(3H)-furanone derivative” (Journal of the Iranian Chemical Society, 2023).
Converted amounts (≈) assume the structure as drawn.

Legend:
[1] = test system: avian influenza HPAI-H5N1 (AIV); set-up: species or system avian influenza virus HPAI-H5N1; conditions: in vivo
[2] = test system: Haemophilus (Gram –ve); experiment: Agar/disk diffusion inhibition zone, Haemophilus; format: cell-based; conditions: diffusion method
[3] = test system: Staphylococcus aureus; experiment: MIC measurement by serial dilution, Staphylococcus aureus; format: cell-based; conditions: 37 °C, 24–72 h, read-out: MIC Staph (Gram + ve)
[4] = test system: SPF chicks; experiment: Immune-boosting properties in vaccinated SPF chicks (humeral response); format: in vivo, chicken; conditions: for Humeral response of vaccinated groups which received each tested compound separately: SPF chicks, vaccine-only group 7 log2; for Immune-boosting properties (in words): antibody titer in serum of vaccinated chicks
[5] = test system: Staphylococcus aureus; experiment: Agar/disk diffusion inhibition zone, Staphylococcus aureus; format: cell-based; conditions: diffusion method
[6] = test system: Candida albicans; experiment: Agar diffusion antifungal activity, Candida albicans; format: cell-based; conditions: diffusion method
[7] = test system: Haemophilus (Gram –ve); experiment: MIC measurement by serial dilution, Haemophilus; format: cell-based; conditions: read-out: MIC Haemophilus (Gram –ve)
[8] = test system: avian influenza HPAI-H5N1 (AIV); set-up: species or system avian influenza virus HPAI-H5N1; conditions: in vivo; remark: listed apart in the source
[9] = Total antioxidant capacity (TAC), phosphomolybdenum method; conditions: for Total antioxidant capacity: 500 µg/ml in methanol, 95 °C 90 min, 695 nm, means ± S.D., n = 3
[10] = test system: embryonated chicken SPF eggs; conditions: in vivo

| SMILES | Antiviral activity against avian influenza virus (in words) [1] | Virus titer with compound [1] | Inhibition diameter Haemophilus (Gram –ve) [2] | MIC [3] | Humeral response of vaccinated groups which received each tested compound separately [4] | Immune-boosting properties (in words) [4] | Inhibition diameter Staph (Gram + ve) [5] | Candida albicans (diameter of inhibition zone) [6] | MIC [7] | TI [8] | Antioxidant activity (in words) [9] | Total antioxidant capacity [9] | CC50 [10] |
| --- | --- | --- | --- | --- | --- | --- | --- | --- | --- | --- | --- | --- | --- |
| Cc1ccc(C2=CC(=Cc3c(C)nn(-c4ccccc4)c3Cl)C(=O)O2)cc1 [Compound 3, 3-((5-Chloro-3-methyl-1-phenyl-1H-pyrazol-4-yl)methylene)-5-(p-tolyl)furan-2(3H)-one] | remarked antiviral activity | 10^1 | 22 mm | 2 µg/mL | 7.3 log2 | special immune-boosting properties | 23 mm | 24 mm | 1 µg/mL (≈ 2.65 µM) | 96.77 | Moderate antioxidant activity | 156.33 ± 4.04 mg AAE/g dry compound | 300 > µl/ egg |
| Cc1ccc(C2=CC(=Cc3c(C)nn(-c4ccccc4)c3Cl)C(=O)N2)cc1 [Compound 4, 3-((5-Chloro-3-methyl-1-phenyl-1H-pyrazol-4-yl)methylene)-5-(p-tolyl)-1,3-dihydro-2H-pyrrol-2-one] | remarked antiviral activity | 10^1 | 22 mm | 5 µg/mL | 7.5 log2 | special immune-boosting properties | 25 mm | 25 mm | 6 µg/mL (≈ 16 µM) | 83.3 | – | 278.56 ± 4.61 mg AAE/g dry compound | 500 > µl/ egg |
| Cc1ccc(C(=O)CC(=Cc2c(C)nn(-c3ccccc3)c2Cl)C(=O)NCc2ccccc2)cc1 [Compound 5, N-Benzyl-2-((5-chloro-3-methyl-1-phenyl-1H-pyrazol-4-yl)methylene)-4-oxo-4-(p-tolyl)butanamide] | remarked antiviral activity | 10^1 | 23 mm | 3 µg/mL | 7.4 log2 | special immune-boosting properties | 24 mm | 22 mm | 3 µg/mL (≈ 6.2 µM) | 96.77 | – | 221.14 ± 4.63 mg AAE/g dry compound | 300 > µl/ egg |
| Cc1ccc(C(=O)CC(=Cc2c(C)nn(-c3ccccc3)c2Cl)C(=O)NCC(C)C)cc1 [Compound 6, 2-((5-Chloro-3-methyl-1-phenyl-1H-pyrazol-4-yl)methylene)-N-isobutyl-4-oxo-4-(p-tolyl)butanamide] | remarked antiviral activity | 10^1 | 25 mm | 4 µg/mL | 7.4 log2 | special immune-boosting properties | 22 mm | 20 mm | 5 µg/mL (≈ 11.1 µM) | 83.3 | – | 248.67 ± 4.11 mg AAE/g dry compound | 500 > µl/ egg |
| Cc1ccc(C(=O)CC(=Cc2c(C)nn(-c3ccccc3)c2Cl)C(=O)NN)cc1 [Compound 8, 2-((5-Chloro-3-methyl-1-phenyl-1H-pyrazol-4-yl)methylene)-4-oxo-4-(p-tolyl)butanehydrazide] | little antiviral activity | – | 4 mm | 13 µg/mL | 6.6 log2 | – | 8 mm | 8 mm | 12 µg/mL (≈ 29.3 µM) | 55.5 | Moderate antioxidant activity | 145.0 ± 1.73 mg AAE/g dry compound | 500 > µl/ egg |
| Cc1ccc(-c2cc(Cc3c(C)nn(-c4ccccc4)c3Cl)c(=O)[nH]n2)cc1 [Compound 9, 4-((5-chloro-3-methyl-1-phenyl-1H-pyrazol-4-yl)methyl)-6-(p-tolyl)pyridazin-3(2H)-one] | little antiviral activity | – | 1 mm | 19 µg/mL | 6log2 | less immune-boosting properties | 2 mm | 2 mm | 20 µg/mL (≈ 51.2 µM) | 50 | highest potent levels of activity | 374.0 ± 2.08 mg AAE/g dry compound | 400 > µl/ egg |
| Cc1ccc(C(=O)CC(=Cc2c(C)nn(-c3ccccc3)c2Cl)C(=O)NNc2ccccc2)cc1 [Compound 10, 2-((5-Chloro-3-methyl-1-phenyl-1H-pyrazol-4-yl)methylene)-4-oxo-N'-phenyl-4-(p-tolyl)butanehydrazide] | little antiviral activity | – | 6 mm | 13 µg/mL | 6.9 log2 | – | 7 mm | 7 mm | 17 µg/mL (≈ 35.1 µM) | 55.5 | highest potent levels of activity | 336.0 ± 3.46 mg AAE/g dry compound | 500 > µl/ egg |
| Cc1ccc(C(=O)CC(=Cc2c(C)nn(-c3ccccc3)c2Cl)C2=NCCN2)cc1 [Compound 11, 4-(5-Chloro-3-methyl-1-phenyl-1H-pyrazol-4-yl)-3-(4,5-dihydro-1H-imidazol-2-yl)-1-(p-tolyl)but-3-en-1-one] | remarked antiviral activity | 10^1 | 22 mm | 5 µg/mL | 7.1 log2 | special immune-boosting properties | 25 mm | 24 mm | 2 µg/mL (≈ 4.77 µM) | 83.3 | – | 280.0 ± 2.0 mg AAE/g dry compound | 500 > µl/ egg |
| CC(=O)N(C(C)=O)N1C(=O)C(=Cc2c(C)nn(-c3ccccc3)c2Cl)C=C1c1ccc(C)cc1 [Compound 13, N-Acetyl-N-(3-((5-chloro-3-methyl-1-phenyl-1H-pyrazol-4-yl)methylene)-2-oxo-5-(p-tolyl)-2,3-dihydro-1H-pyrrol-1-yl)acetamide] | less antiviral activity | – | 12 mm | 9 µg/mL | 6.9 log2 | – | 14 mm | 14 mm | 10 µg/mL (≈ 21.1 µM) | 71.42 | Moderate antioxidant activity | 190.0 ± 1.67 mg AAE/g dry compound | 500 > µl/ egg |
| Cc1ccc(C2=CC(=Cc3c(C)nn(-c4ccccc4)c3Cl)C(=O)N2NC(=O)c2ccccc2)cc1 [Compound 14, N-(3-((5-Chloro-3-methyl-1-phenyl-1H-pyrazol-4-yl)methylene)-2-oxo-5-(p-tolyl)-2,3-dihydro-1H-pyrrol-1-yl)benzamide] | little antiviral activity | – | 8 mm | 16 µg/mL | 7.2 log2 | – | 7 mm | 7 mm | 16 µg/mL (≈ 32.3 µM) | 55.5 | – | 261.0 ± 2.48 mg AAE/g dry compound | 500 > µl/ egg |
| Cc1ccc(C2=CC(=Cc3c(C)nn(-c4ccccc4)c3Cl)C(=O)N2N=Cc2ccc(Cl)cc2)cc1 [Compound 15, 3-((5-Chloro-3-methyl-1-phenyl-1H-pyrazol-4-yl)methylene)-1-((4-chlorobenzylidene)-amino)-5-(p-tolyl)-1,3-dihydro-2H-pyrrol-2-one] | little antiviral activity | 10^5 | 7 mm | 18 µg/mL | 6.6 log2 | – | 6 mm | 6 mm | 16 µg/mL (≈ 31.2 µM) | 55.5 | – | 262.27 ± 2.51 mg AAE/g dry compound | 500 > µl/ egg |
